Assay results published in patent US5002942A, “1,5-benzothiazepine derivatives, their preparation and their use in the treatment of cardiovascular disorders” (Sankyo Company, Limited, priority 1988, dated 1991).

Columns and labels:
[1] = target: T1, calcium channel (Cavia porcellus, UniProt O35505); assay: Calcium channel blocking action (calcium-induced contraction of excised taenia coli); conditions: 0.5 h, test compound 10^-8 g/ml, 30 minutes incubation, guinea pig taenia coli, hydrochlorides (Example 34: fumarate)
T1 construct: The taenia coli excised from a male guinea pig; from tissue; host or cells: guinea pig taenia coli (excised smooth muscle strip)
Procedure: The taenia coli excised from a male guinea pig weighing from 250 to 300 g was cut into a length of 6 to 7 mm and suspended in an organ bath filled with Tylord's solution (sodium chloride 97 mM, potassium chloride 40 mM, sodium hydrogen carbonate 11.9 mM, disodium hydrogen phosphate 0.4 mM, glucose 5.5 mM; pH 7.1). The bath solution contained no calcium ions and was aerated with a mixture of 95% oxygen and 5% carbon dioxide by volume. To this solution were added 10 and 30 mM solutions of calcium chloride at 30 minute intervals to obtain a final concentration of 0.4 mM. The tension which developed 1n the taenia coli was measured by an isometric transducer. The organ bath was then washed twice or more with Tylord's solution containing no calcium ions after which it was allowed to equilibrate for 30 minutes. After the muscle had stabilised, test compound dissolved in physiological saline was added to the bath to a final concentration of 10^-8 g/ml, and the bath was incubated for 30 minutes. 30 and 100 mM solutions of calcium chloride were again added to the bath, and the developed tension was measured. From the magnitude of the calcium-induced contraction before and after the test drug had been added the inhibitory rate was calculated using the following formula: [formula] where: Co=contraction induced by calcium ion before a test drug was added: and
Ct=contraction induced by calcium ion after the test drug had been added.
In addition to the compounds of the invention, we also carried out the same test with the following compounds of the prior art: (±)-diltiazem, […], (±)-8-chlorodiltiazem (8-Cl-diltiazem). (±)-8-methoxydiltiazem (8-MeO-diltiazem) and (±)-8-benzyloxydiltiazem (8-BzO-diltiazem).
In the Table, the compounds of the invention are identified by the number of the one of the foregoing Examples in which the compound was prepared. The prior art compounds are identified by the abbreviated generic names shown above in parentheses.
All of the compounds except for that of Example 34 were employed as the hydrochlorides; that of Example 34 was employed as the fumarate.

[2] = system: SHR (spontaneously hypertensive rats); assay: Antihypertensive action in SHR; format: in vivo; conditions: Dose 30 mg/kg, conscious male SHR, hydrochlorides, 24 hours; for change in vivo at 30 mg/kg: Rattus norvegicus, po, read-out: Maximum hypotension (%)
Procedure: Male SHR (spontaneously hypertensive rats), 23 to 30 weeks old, were anesthesized with sodium pentobarbital 50 mg/kg intraperitoneal administration), and a polyethylene cannula was inserted through the left femoral artery into the abdominal aorta. The other end of the cannula was led out of the body and fixed at the back of the neck. One week after the operation, when the animal had recovered from the stress of the surgery, the other end of the cannula was connected to a blood pressure measuring device, which was constructed according to the directions of Laffan et al. [Laffan, P.J., Peterson A., Hitch S,W. and Jeunelot C., Cardiovascular Res. 6. 319-324 (1972)], but with slight modifications. The blood pressure and heart rate of the conscious and […] SHR were measured. After the blood pressure and the heart rate had stabilised for more than one hour, the test drug was administered by […]. After administration of the test sample, the blood pressure and the heart rate were measured every 15 minutes over a period of 24 hours. The maximum decrease in blood pressure and the half-time of the blood pressure lowering activity thus determined are shown in Table 6.
All of the test compounds were employed as the hydrochlorides.

T1 sequence (O35505 whole entry): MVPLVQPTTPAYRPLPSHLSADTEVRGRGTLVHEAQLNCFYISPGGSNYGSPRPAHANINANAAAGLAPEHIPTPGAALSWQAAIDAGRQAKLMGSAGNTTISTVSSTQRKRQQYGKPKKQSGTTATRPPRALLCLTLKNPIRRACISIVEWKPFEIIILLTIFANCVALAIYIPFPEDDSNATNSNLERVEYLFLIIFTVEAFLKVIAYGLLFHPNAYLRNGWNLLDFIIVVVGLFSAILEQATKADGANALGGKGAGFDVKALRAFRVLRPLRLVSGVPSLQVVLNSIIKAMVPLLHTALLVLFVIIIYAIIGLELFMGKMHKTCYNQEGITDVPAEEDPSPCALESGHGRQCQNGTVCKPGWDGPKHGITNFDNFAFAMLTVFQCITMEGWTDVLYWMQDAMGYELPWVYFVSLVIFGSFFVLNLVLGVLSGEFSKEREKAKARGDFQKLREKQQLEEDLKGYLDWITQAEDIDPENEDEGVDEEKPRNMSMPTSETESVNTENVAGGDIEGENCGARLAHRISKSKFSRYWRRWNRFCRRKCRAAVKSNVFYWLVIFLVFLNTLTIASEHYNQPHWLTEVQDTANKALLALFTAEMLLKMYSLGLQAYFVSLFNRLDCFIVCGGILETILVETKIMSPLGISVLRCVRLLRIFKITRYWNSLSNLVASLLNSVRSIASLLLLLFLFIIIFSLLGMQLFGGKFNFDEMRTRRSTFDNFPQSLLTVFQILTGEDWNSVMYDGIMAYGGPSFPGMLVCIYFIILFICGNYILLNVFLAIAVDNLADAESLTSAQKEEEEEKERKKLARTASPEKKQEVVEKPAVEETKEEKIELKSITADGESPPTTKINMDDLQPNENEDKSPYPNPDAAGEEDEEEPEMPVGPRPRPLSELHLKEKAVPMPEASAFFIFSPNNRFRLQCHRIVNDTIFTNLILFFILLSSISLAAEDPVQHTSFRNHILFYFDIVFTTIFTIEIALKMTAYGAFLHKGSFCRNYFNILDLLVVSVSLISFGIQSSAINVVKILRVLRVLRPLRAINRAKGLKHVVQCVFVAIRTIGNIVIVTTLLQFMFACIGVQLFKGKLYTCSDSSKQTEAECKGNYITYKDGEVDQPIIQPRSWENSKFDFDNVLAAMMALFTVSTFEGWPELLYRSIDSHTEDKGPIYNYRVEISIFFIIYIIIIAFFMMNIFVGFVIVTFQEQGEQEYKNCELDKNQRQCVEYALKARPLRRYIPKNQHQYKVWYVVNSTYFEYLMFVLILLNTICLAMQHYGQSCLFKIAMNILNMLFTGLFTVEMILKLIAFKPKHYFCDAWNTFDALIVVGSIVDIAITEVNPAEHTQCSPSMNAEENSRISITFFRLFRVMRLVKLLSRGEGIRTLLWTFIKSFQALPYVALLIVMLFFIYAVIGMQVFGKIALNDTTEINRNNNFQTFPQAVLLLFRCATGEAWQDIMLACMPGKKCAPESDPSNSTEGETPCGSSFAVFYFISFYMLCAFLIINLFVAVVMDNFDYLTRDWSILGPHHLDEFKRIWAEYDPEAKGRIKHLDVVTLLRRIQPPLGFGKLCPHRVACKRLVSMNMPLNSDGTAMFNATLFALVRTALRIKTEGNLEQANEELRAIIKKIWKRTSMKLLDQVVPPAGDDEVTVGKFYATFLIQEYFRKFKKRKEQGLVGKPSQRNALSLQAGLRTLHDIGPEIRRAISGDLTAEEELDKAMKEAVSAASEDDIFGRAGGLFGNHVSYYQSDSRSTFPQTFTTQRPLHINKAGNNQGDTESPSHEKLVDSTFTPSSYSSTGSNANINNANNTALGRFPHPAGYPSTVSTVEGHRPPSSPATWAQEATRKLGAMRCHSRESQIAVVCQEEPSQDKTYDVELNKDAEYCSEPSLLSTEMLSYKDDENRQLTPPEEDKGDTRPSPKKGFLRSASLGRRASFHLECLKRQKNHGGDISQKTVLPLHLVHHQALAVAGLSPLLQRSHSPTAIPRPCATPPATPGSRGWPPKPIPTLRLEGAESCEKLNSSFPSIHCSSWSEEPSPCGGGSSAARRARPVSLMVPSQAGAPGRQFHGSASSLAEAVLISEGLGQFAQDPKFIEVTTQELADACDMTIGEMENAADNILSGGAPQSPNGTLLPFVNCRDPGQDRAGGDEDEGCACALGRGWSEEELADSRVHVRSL

COc1ccc([C@@H]2Sc3cc(OCc4ccccc4)ccc3N(CCN(C)C)C(=O)[C@@H]2OC(C)=O)cc1 (racemic) [(±)-8-BzO-diltiazem, cis-3-acetoxy-8-benzyloxy-2,3-dihydro-5-(2-dimethylaminoethyl)-2-(4-methoxyphenyl)-1,5-benzothiazepin-4(5H)-one, reference compound]
inhibition at 0.01 µg/mL [1]: 55%
Half-time of hypotension action [2]: 7.7 h
change in vivo at 30 mg/kg [2]: -19%

COc1ccc([C@@H]2Sc3cc(Oc4ccccc4)ccc3N(CCN(C)C)C(=O)[C@@H]2OC(C)=O)cc1 (racemic) [Example 2, (±)-Cis-3-acetoxy-5-(2-dimethylaminoethyl)-2,3-dihydro-2-(4-methoxyphenyl)-8-phenoxy-1,5-benzothiazepin-4(5H)-one]
inhibition at 0.01 µg/mL [1]: 58%
Half-time of hypotension action [2]: 13.9 h
change in vivo at 30 mg/kg [2]: -34%

COc1ccc([C@@H]2Sc3cc(Oc4ccccc4)ccc3N(CCN(C)C)C(=O)[C@@H]2OC(C)=O)cc1F (racemic) [Example 4, (±)-Cis-3-acetoxy-5-(2-dimethylaminoethyl)-2-(3-fluoro-4-methoxyphenyl)-2,3-dihydro-8-phenoxy-1,5-benzothiazepin-4(5H)-one]
inhibition at 0.01 µg/mL [1]: 84%
Half-time of hypotension action [2]: 16.0 h
change in vivo at 30 mg/kg [2]: -36%

COc1ccc([C@@H]2Sc3cc(Oc4ccc(F)cc4)ccc3N(CCN(C)C)C(=O)[C@@H]2OC(C)=O)cc1 (racemic) [Example 22, (±)-cis-3-Acetoxy-5-(2-dimethylaminoethyl)-8-(4-fluoro-phenoxy)-2,3-dihydro-2-(4-methoxyphenyl)-1,5-benzothiazepin-4(5H)-one]
inhibition at 0.01 µg/mL [1]: 52%

COc1ccc([C@@H]2Sc3cc(Oc4ccc(F)cc4)ccc3N(CCN(C)C)C(=O)[C@@H]2OC(C)=O)cc1F (racemic) [Example 24, (±)-cis-3-Acetoxy-5-(2-dimethylaminoethyl)-2-(3-fluoro-4-methoxyphenyl)-8-(4-fluorophenoxy)-2,3-dihydro-1,5-benzothiazepin-4(5H)-one]
inhibition at 0.01 µg/mL [1]: 93%

COc1ccc([C@@H]2Sc3cc(Cl)ccc3N(CCN(C)C)C(=O)[C@@H]2OC(C)=O)cc1 (relative stereo) [(±)-8-Cl-diltiazem, cis-3-acetoxy-8-chloro-2,3-dihydro-5-(2-dimethylaminoethyl)-2-(4-methoxyphenyl)-1,5-benzothiazepin-4(5E,uns/H/ )-one, reference compound]
inhibition at 0.01 µg/mL [1]: 56%
Half-time of hypotension action [2]: 6.1 h
change in vivo at 30 mg/kg [2]: -32%

CC(=O)O[C@H]1C(=O)N(CCN(C)C)c2ccc(Oc3ccccc3)cc2S[C@H]1c1ccc2c(c1)OCO2 (relative stereo) [Example 6, (±)-Cis-3-acetoxy-5-(2-dimethylaminoethyl)-2,3-dihydro-2-(3,4-methylenedioxyphenyl)-8-phenoxy-1,5-benzothiazepin-(5H)-one]
inhibition at 0.01 µg/mL [1]: 53%

COc1ccc(Oc2ccc3c(c2)S[C@@H](c2ccc(OC)cc2)[C@@H](OC(C)=O)C(=O)N3CCN(C)C)cc1 (relative stereo) [Example 28, (±)-cis-3-Acetoxy-5-(2-dimethylaminoethyl)-2,3-dihydro-8-(4-methoxyphenoxy)-2-(4-methoxyphenyl)-1,5-benzothlazepin-4-(5H)-one]
inhibition at 0.01 µg/mL [1]: 59%

COc1ccc([C@@H]2Sc3cc(Oc4ccc(Cl)cc4)ccc3N(CCN(C)C)C(=O)[C@@H]2OC(C)=O)cc1 (relative stereo) [Example 30, (±)-cis-3-Acetoxy-8-(4-chlorophenoxy)-2,3-dihydro-5-(2-dimethylaminoethyl)-2-(4-methoxyphenyl)-1,5-benzothiazepin-4-(5H)-one]
inhibition at 0.01 µg/mL [1]: 56%

COc1ccc([C@@H]2Sc3cc(Oc4ccc5c(c4)OCO5)ccc3N(CCN(C)C)C(=O)[C@@H]2OC(C)=O)cc1 [Example 34, (2S, 3S)-3-Acetoxy-5-(2-dimethylaminoethyl)-2,3-dihydro-2-(4-methoxyphenyl)-8-(3,4-methylenedioxyphenoxy)-1,5-benzothiazepin-4(5H)-one]
inhibition at 0.01 µg/mL [1]: 88%
